B1: 3BNC117: human IgG1 monoclonal antibody targeting the CD4 binding site on HIV gp160; expressed in cells from vector AGT112 (protein)
chain 1: MYRMQLLSCIALSLALVTQVQLLQSGAAVTKPGASVRVSCEASGYNIRDYFIHWWRQAPGQGLQWVGWINPKTGQPNNPRQFQGRVSLTRHASWDFDTFSFYMDLKALRSDDTAVYFCARQRSDYWDFDVWGSGTQVTVSSASTKGP
chain 2: MYRMQLLSCIALSLALVTDIQMTQSPSSLSASVGDTVTITCQANGYLNWYQQRRGKAPKLLIYDGSKLERGVPSRFSGRRWGQEYNLTINNLQPEDIATYFCQVYEFVVPGTRLDLKRTVAAP
modifications: constant regions lack entries; misc_feature 1..441 3BNC117 Heavy Variable Chain (with IL-2 secretory signal); misc_feature 1..369 3BNC117 Light Variable Chain (with IL-2 secretory signal)
notes: expressed in cells from vector AGT112
B2: AGT103: Vector encoding inhibitory RNA sequences targeting CCR5 and HIV Vif/Tat with EF-1α promoter (SEQ ID NO: 78) (nucleic acid)
DNA: CCGGTGCCTAGAGAAGGTGGCGCGGGGTAAACTGGGAAAGTGATGTCGTGTACTGGCTCCGCCTTTTTCCCGAGGGTGGGGGAGAACCGTATATAAGTGCAGTAGTCGCCGTGAACGTTCTTTTTCGCAACGGGTTTGCCGCCAGAACACAGGTAAGTGCCGTGTGTGGTTCCCGCGGGCCTGGCCTCTTTACGGGTTATGGCCCTTGCGTGCCTTGAATTACTTCCACGCCCCTGGCTGCAGTACGTGATTCTTGATCCCGAGCTTCGGGTTGGAAGTGGGTGGGAGAGTTCGAGGCCTTGCGCTTAAGGAGCCCCTTCGCCTCGTGCTTGAGTTGAGGCCTGGCCTGGGCGCTGGGGCCGCCGCGTGCGAATCTGGTGGCACCTTCGCGCCTGTCTCGCTGCTTTCGATAAGTCTCTAGCCATTTAAAATTTTTGATGACCTGCTGCGACGCTTTTTTTCTGGCAAGATAGTCTTGTAAATGCGGGCCAAGATCTGCACACTGGTATTTCGGTTTTTGGGGCCGCGGGCGGCGACGGGGCCCGTGCGTCCCAGCGCACATGTTCGGCGAGGCGGGGCCTGCGAGCGCGGCCACCGAGAATCGGACGGGGGTAGTCTCAAGCTGGCCGGCCTGCTCTGGTGCCTGGCCTCGCGCCGCCGTGTATCGCCCCGCCCTGGGCGGCAAGGCTGGCCCGGTCGGCACCAGTTGCGTGAGCGGAAAGATGGCCGCTTCCCGGCCCTGCTGCAGGGAGCTCAAAATGGAGGACGCGGCGCTCGGGAGAGCGGGCGGGTGAGTCACCCACACAAAGGAAAAGGGCCTTTCCGTCCTCAGCCGTCGCTTCATGTGACTCCACGGAGTACCGGGCGCCGTCCAGGCACCTCGATTAGTTCTCGAGCTTTTGGAGTACGTCGTCTTTAGGTTGGGGGGAGGGGTTTTATGCGATGGAGTTTCCCCACACTGAGTGGGTGGAGACTGAAGTTAGGCCAGCTTGGCACTTGATGTAATTCTCCTTGGAATTTGCCCTTTTTGAGTTTGGATCTTGGTTCATTCTCAAGCCTCAGACAGTGGTTCAAAGTTTTTTTCTTCCATTTCAGGTGTCGTGATGTACAAGGTATATTGCTGTTGACAGTGAGCGACTGTAAACTGAGCTTGCTCTACTGTGAAGCCACAGATGGGTAGAGCAAGCACAGTTTACCGCTGCCTACTGCCTCGGACTTCAAGGGGCTTCCCGGGCATCTCCATGGCTGTACCACCTTGTCGGGGGATGTGTACTTCTGAACTTGTGTTGAATCTCATGGAGTTCAGAAGAACACATCCGCACTGACATTTTGGTATCTTTCATCTGACCAGCTAGCGGGCCTGGCTCGAGCAGGGGGCGAGGGATTCCGCTTCTTCCTGCCATAGCGTGGTCCCCTCCCCTATGGCAGGCAGAAGCGGCACCTTCCCTCCCAATGACCGCGTCTTCGTC
modifications: misc_feature 1..1469 AGT103

How the values were obtained:
HIV NL43-GFP [1] = experiment: HIV NL43-GFP infection of PBMC transduced with sCD4 lentiviral vectors (Example 4); format: cell-based; settings: columns NL43+sCD4 / NL43-sCD4-Ig / NL43-Saquinavir
Source text: Method: On day 0, PBMC were depleted of CD8+ T cell and then stimulated with TransAct (CD3/CD28 beads) (MiltenyiBiotec). On day 1, PBMC were transduced with lentiviral vectors expressing sCD4 (SEQ ID NO: 8 (AGT116) and SEQ ID NO: 10 (AGT117)).
The components of the vectors are described in Table 2. The AGT116 vector (SEQ ID NO: 8) contains a sCD4 sequence (SEQ ID NO: 7) and an EF-1α promoter (SEQ ID NO: 14) upstream of the sCD4 sequence. The AGT117 vector (SEQ ID NO: 10) contains a sCD4-IgG1 Fc sequence (SEQ ID NO: 9) and an EF-1α promoter (SEQ ID NO: 14) upstream of the sCD4-IgG1 Fc sequence.
On day 2, the PBMC were infected with HIV NL43-GFP. On day 3, the cells were washed three times. Cells were then […]. On day 6, HIV-infected GFP positive cells were measured.

[2] = test system: HIV recombinant strain NL43 that expresses GFP; experiment: HIV NL43-GFP infection of primary CD4 T cells transduced with AGT111 at various MOI (Example 7); format: cell-based; settings: 200 nM saquinavir
Method: Method: CD4 T cells were separated by negative selection and stimulated for 1 day with TransAct (CD3/CD28 beads) (Miltenyi Biotec) plus IL-2 (30 U/mL) (Thermo Fisher Scientific) and then transduced with lentivirus vector AGT111 (SEQ ID NO: 2) at various MOI.
One day later, cells were infected with 1 MOI of HIV recombinant strain NL43 that expresses GFP. […] As a control, HIV infected cells were treated with 200 nM saquinavir. At the end of the culture, cells were collected and analyzed by flow cytometry for GFP expression and with an APC anti-CD4 antibody. If the CD4 cell expresses GFP, it was infected by HIV.

HIV NL43-GFP [3] = experiment: HIV NL43-GFP infection of CD8-depleted, CD3/CD28-stimulated PBMC transduced with lentiviral vector encoding 3BNC117 (Example 3); format: cell-based; settings: day six, FIG. 6
Source text: Method: On day 0, PBMC were depleted of CD8+ T cells and then stimulated with TransAct (CD3/CD28 beads) (MiltenyiBiotec). On day 1, the PBMC were transduced with a lentiviral vectors expressing the broadly neutralizing antibody (bNAb) against HIV (SEQ ID NO:4; AGT112). The components of the vectors are described in Table 2. The AGT112 vector (SEQ ID NO: 4) contains a CMV promoter (SEQ ID NO: 13) that drives expression of a 3BNC117 antibody sequence that contains an IL-2 secretory sequence (SEQ ID NO: 74 (3BNC117 heavy variable chain (with IL-2 secretory sequence)) and SEQ ID NO: 75 (3BNC117 light variable chain (with IL-2 secretory sequence)). The IL-2 secretory sequence is SEQ ID NO: 11.
On day two (2), the PBMC were then infected with HIV NL43-GFP. On day three, cells were washed three times. On day six, HIV-infected GFP positive cells were measured. This protocol is shown in FIG. 5 but here LV-3BNC117 was substituted for LV-VRC01.

[4] = test system: HIV Gag-specific CD4 T cells; experiment: Antibody (IgG Fc) expression by HIV Gag-specific CD4 T cells after peptide stimulation (Example 5); format: cell-based, human; settings: for cells positive for IgG Fc: MOI 5
Method: Method: To measure antibody expression by HIV Gag-specific CD4 T cells, HIV positive human peripheral blood mononuclear cells (PBMCs) were separated with Ficoll-Paque PLUS (GE Healthcare, Cat: 17-1440-02). Separated PBMCs (1×10^7) were stimulated with PepMix™ HIV (GAG) Ultra (Cat: PM-HIV-GAG, JPT Peptide Technologies) in 1 mL medium in a 24-well plate for 18 hours. CD8 T, γδ, NK, and B cells were depleted with PE labeled specific antibodies and anti-PE microbeads. The negatively selected cells were cultured at 2×10^6/mL in TexMACS GMP medium (Cat: 170-076-309, Miltenyi Biotec) containing IL7 (170-076-111, Miltenyi Biotec), IL15 (170-076-114, Miltenyi Biotec) and saquinavir (Cat: 4658, NIH AIDS Reagent Program). The lentivirus vector AGT111 (SEQ ID NO: 2) encoding anti-HIV antibody VRC01 or AGT112 (SEQ ID NO: 4) encoding anti-HIV antibody 3BNC117 was added 24 hours later at a multiplicity of infection (MOI) of 5.
Fresh medium containing IL7, IL15, and saquinavir was added every 2-3 days during cell expansion. The starting concentration of IL7 and IL15 was 10 ng/mL. On day 12-16, 2-3×10^6 cells were collected for peptide stimulation. The intracellular expression of IFNγ and IgG Fc was detected with a PE anti-IFNγ antibody and an APC anti-IgG1 Fc antibody (Biolegend).

[5] = test system: HIV recombinant strain NL43 that expresses GFP; experiment: HIV NL43-GFP infection of primary CD4 T cells transduced with AGT103 or AGT118 (Example 17); format: cell-based
Source text: Method: CD4 T cells were separated by negative selection and stimulated for 1 day with TransAct (CD3/CD28 beads) (Miltenyi Biotec) plus IL-2 (30 U/mL) (Thermo Fisher Scientific) and then transduced with lentivirus AGT103 (SEQ ID NO: 78) or AGT118 (SEQ ID NO: 80) at a MOI of 5. The AGT103 vector (SEQ ID NO: 78) contains an EF-1α promoter (SEQ ID NO: 14) that drives expression of the miR30-CCR5/miR21-Vif/mir185-Tat microRNA cluster sequence (SEQ ID NO: 65) (miR30-CCR5/miR21-Vif/miR185-Tat microRNA cluster sequence). The miR30-CCR5 sequence is SEQ ID NO: 62. The miR21-Vif sequence is SEQ ID NO: 63. The miR185-Tat sequence is SEQ ID NO: 64. The AGT118 vector (SEQ ID NO: 80) contains an EF-1α promoter (SEQ ID NO: 14) that drives expression of sCD4(D1+D2)-IgG1 Fc (SEQ ID NO: 9) and the miR30-CCR5/miR21-Vif/miR185-Tat microRNA cluster sequence (SEQ ID NO: 65).
One day later, cells were infected with 1 MOI of HIV recombinant strain NL43 that expresses GFP. After 24 hours, CD3/CD28 beads, lentivirus and HIV were removed by washing 3 times with PBS and cultured in RPMI 1640 medium (Thermo Fisher Scientific) containing 10% FBS (Gemini Bio) and 1% Pen-Strep (Thermo Fisher Scientific) with IL-2 (30 U/mL) in a 37° C. incubator at 5% C02 for 7 days with medium supplementation as needed. At the end of the culture, cells were collected and analyzed by flow cytometry. […]

| Molecule | percent of GFP positive cells (HIV NL43-GFP [1]; FIG. 8A bottom row) [%] | percent of GFP positive cells (HIV NL43-GFP [1]; FIG. 8B bottom row) [%] | percentage of GFP positive cells ([2]; day 5) [%] | percentage of GFP positive cells ([2]; day 7) [%] | percentage of GFP positive cells ([2]; day 9) [%] | GFP positive cells (HIV NL43-GFP [3]; NY025 donor) [%] | GFP positive cells (HIV NL43-GFP [3]; NY026 donor) [%] | increase in fluorescence intensity of IgG relative to DMSO treated cells ([4]; Gag PepMix vs DMSO) | cells positive for IgG Fc ([4]; stimulation with Gag PepMix on day 12) [%] | cells positive for IgG Fc ([4]; treated with DMSO (no peptide)) [%] | cells HIV positive ([5]; primary CD4 T cells, MOI of 5) [%] | decrease in HIV infection ([5]; vs control treated cells) [%] |
| --- | --- | --- | --- | --- | --- | --- | --- | --- | --- | --- | --- | --- |
| CC(C)(C)NC(=O)[C@@H]1C[C@@H]2CCCC[C@@H]2CN1C[C@@H](O)[C@H](Cc1ccccc1)NC(=O)[C@H](CC(N)=O)NC(=O)c1ccc2ccccc2n1 [Saquinavir, saquinavir] | 0.017 | 0.026 | 0.19 | 0.22 | 0.24 | 0.025 | 2.43E-3 |  |  |  |  |  |
| B1 |  |  |  |  |  | 1.79 | 0.30 | approximately 10 fold | 1.58 | 0.13 |  |  |
| B2 |  |  |  |  |  |  |  |  |  |  | 0.86 | 75.6 |
